Data on two compounds can be found in patent publication US9739765B2, “Metal-based covalent viability reagent for single cell analysis” (The Board of Trustees of the Leland Stanford Junior …, priority 2013, dated 2017).

The test system of assay [1] is phosphorylation of SLP-76 (Y128) and SLP-65 in PBMCs. The assay is described as follows: Pervanadate stimulation of cisplatin-labeled PBMCs, pSLP-76/65 signaling. The note with it: myeloid cells, T cells and B cells of PBMCs; 125 μM, 15 min. It is filed as cell-based. The protocol: Pervanadate stimulation of PBMCs. Frozen PBMCs were thawed at 37° C. and resuspended in RPMI-1640/10% FBS/2 mM EDTA. A fraction of the PBMCs (30%) was heat-killed separately and spiked back in, as described above. Cells were treated with cisplatin according to the standard protocol described above, at 10^6 cells/ml. Samples were then treated with activated sodium orthovanadate at a final concentration of 125 μM for 15 min at 37° C. Cells were fixed with 1.6% (final concentration) PFA for 10 min at room temperature.
Antibody staining. […]
(§1) Mass cytometry measurement. Cells were analyzed on a CyTOF® mass cytometer (DVS Sciences, Richmond Hill, Ontario, Canada). […] Cells were measured at approximately 500 cells per second, noise reduction was activated and cell extraction parameters were set to: Cell length, range was set from 10 to 65 pushes, and the lower convolution threshold was set to 10.
Cisplatin as a viability indicator for primary samples. […] Therefore to evaluate signaling in PBMCs, phosphorylation of SLP-76 (Y128) (T cells and myeloid cells) and SLP-65 (Y76) (B cells) was determined after a […] exposure to vanadate, a global tyrosine phosphatase inhibitor, shown to increase intracellular kinase activity and phosphotyrosine levels.

A further assay relates to KG-1 cells. The assay is described as follows: Cisplatin viability labeling of partially heat-killed KG-1 cells, mass cytometry. Particulars: KG-1 cells spiked with approximately 30% heat-killed cells; 1 min cisplatin at 10, 50, or 250 μM (all doses). It is filed as cell-based, human. How it is done:
Generation of non-viable control cells. To generate samples with known amounts of non-viable cells, an aliquot of cultured cells was heat-killed at 55° C. for 1 hour, cooled to 37° C. and then spiked into each culture of viable cells at known percentages based on Trypan blue exclusion staining. Samples were then prepared for fluorescence and mass cytometry and the live/dead ratio of cells determined by each technology.
Cisplatin exposure. Cisplatin (WR International, Radnor, Pa., Cat #89150-634) was stored at −80° C. as a stock solution of 100 mM in DMSO (Hybrimax, Sigma Aldrich, St Louis, Mo.). Working solutions (10 mM) were prepared fresh on the day of each experiment by diluting the stock solution into PBS at 4° C. […]
as §1
Comparison between fluorescence and mass cytometry protocols. […] In the first experiment a suspension of human myeloid KG-1 cells spiked with approximately 30% of heat-killed KG-1 cells (determined by Trypan blue extrusion), was tested with Aqua and cisplatin. […]

The subject of assay [2] is Jurkat, KG-1, HeLa, OVCAR3 cell lines. The assay is described as follows: Cisplatin viability labeling of suspension and adherent cell lines spiked with heat-killed cells, mass cytometry. It is filed as cell-based. How it is done:
Cell culture. The cancer cell lines Jurkat (T acute lymphoblastic leukemia suspension cells) and OVCAR-3 (ovarian carcinoma adherent cells) were cultured in RPMI-1640 (GIBCO, Invitrogen, Carlsbad, Calif.) with 10% heat-inactivated fetal bovine serum (FBS), 2 mM L-glutamine and 100 U/ml penicillin. The suspension cell lines KG-1 (acute myeloid leukemia) and HL-60 (acute myeloid leukemia cells) were cultured in IMDM (GIBCO, Invitrogen, Carlsbad, Calif.) with 20% heat-inactivated FBS and 100 U/ml penicillin. The adherent cell line HeLa (cervical carcinoma) was cultured in DMEM (GIBCO, Invitrogen, Carlsbad, Calif.) with 10% heat-inactivated FBS and 100 U/ml penicillin. All cell lines were maintained at 37° C. in a humidified 5.0% CO2 environment. Peripheral blood from healthy donors was purchased from the Stanford Blood Bank according to an IRB-approved protocol. […] Samples were then prepared for fluorescence and mass cytometry and the live/dead ratio of cells determined by each technology. […] Cells were analyzed on a CyTOF® mass cytometer (DVS Sciences, Richmond Hill, Ontario, Canada). […] Cells were measured at approximately 500 cells per second, noise reduction was activated and cell extraction parameters were set to: Cell length, range was set from 10 to 65 pushes, and the lower convolution threshold was set to 10. […]

As to “activated sodium orthovanadate [pervanadate]”, in assay [1], the “SLP-76/65 phosphorylation in response to pervanadate, cisplatin-high populations” value is given as “no response” and the “SLP-76/65 phosphorylation in response to pervanadate, cisplatin-low populations” value was “strong increase”.

Consider `N.N.[Cl][Pt][Cl]` [cisplatin, Cisplatin [Pt(NH3)2Cl]], for which, in the assay with KG-1 cells, the “frequency of cisplatin positive (dead) cells” value is on record as 26-28%. Also, the “signal-to-noise ratios separating live and dead cells” value in assay [2] (1-minute pulse protocol, routinely observed (FIG. 2-5)) is “greater than 10 fold”. In addition, the “signal-to-noise ratios, cisplatin-high (dead) vs cisplatin-low (live) populations” value in assay [2] (each cisplatin concentration (10, 50, 250 μM), HeLa, OVCAR3, Jurkat, KG-1) is “above 10”.
